Experimental data: ChEMBL document CHEMBL1201862, “PubChem BioAssay data set” (2004)
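Cells were grown in 96-well plates and exposed to each compound for 48 hours at five concentrations; endpoints were interpolated linearly between bracketing concentrations, or set to the highest concentration if not reached. GI50 marks 50% less growth.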 Calls of active or inactive are those of the source. Cut-off read from the data, not from the text of the source: active = GI50 up to about 1.1 µM and inactive = higher.

Tests used:
Assay in all cases: NCI anticancer screen, dose series, 48 h
[1] = tested on: A498
[2] = tested on: OVCAR-4
[3] = tested on: HOP-62
[4] = tested on: SK-MEL-5
[5] = tested on: ACHN
[6] = tested on: NCI-H23
[7] = tested on: NCI-H226
[8] = tested on: MDA-N
[9] = tested on: HT-29
[10] = tested on: KM12
[11] = tested on: MDA-MB-231
[12] = tested on: Malme-3M
[13] = tested on: SF-295
[14] = tested on: SN12C
[15] = tested on: NCI/ADR-RES
[16] = tested on: HCC 2998
[17] = tested on: SK-MEL-2
[18] = tested on: SW-620
[19] = tested on: CCRF-CEM
[20] = tested on: LOX IMVI
[21] = tested on: MDA-MB-435
[22] = tested on: 786-0
[23] = tested on: OVCAR-8
[24] = tested on: COLO 205
[25] = tested on: CAKI-1
[26] = tested on: A549
[27] = tested on: SR
[28] = tested on: PC-3
[29] = tested on: HL-60
[30] = tested on: UACC-257
[31] = tested on: SF-268
[32] = tested on: SNB-75
[33] = tested on: SNB-19
[34] = tested on: OVCAR-3
[35] = tested on: UO-31
[36] = tested on: EKVX
[37] = tested on: DU-145
[38] = tested on: IGROV-1
[39] = tested on: Hs-578T
[40] = tested on: SK-MEL-28
[41] = tested on: HOP-92
[42] = tested on: HCT-116
[43] = tested on: BT-549
[44] = tested on: UACC-62
[45] = tested on: OVCAR-5
[46] = tested on: NCI-H522
[47] = tested on: K562
[48] = tested on: RPMI-8226
[49] = tested on: M14
[50] = tested on: NCI-H460
[51] = tested on: U-251
[52] = tested on: MOLT-4
[53] = tested on: SK-OV-3
[54] = tested on: MCF7
[55] = tested on: RXF 393
[56] = tested on: HCT-15
[57] = tested on: TK-10
[58] = tested on: T47D
[59] = tested on: SF-539

## CCOP(=O)(OCC)/C(C#N)=C/c1coc2cc(C)cc(C)c2c1=O
[1]
  GI50: > 100 µM (inactive)
[2]
  GI50: > 100 µM (inactive)
[3]
  GI50: > 100 µM (inactive)
[4]
  GI50: > 100 µM (inactive)
[5]
  GI50: > 100 µM (inactive)
[6]
  GI50: > 100 µM (inactive)
[7]
  GI50: > 100 µM (inactive)
[8]
  GI50: > 100 µM (inactive)
[9]
  GI50: > 100 µM (inactive)
[10]
  GI50: > 100 µM (inactive)
[11]
  GI50: > 100 µM (inactive)
[12]
  GI50: > 100 µM (inactive)
[13]
  GI50: > 100 µM (inactive)
[14]
  GI50: > 100 µM (inactive)
[15]
  GI50: > 100 µM (inactive)
[16]
  GI50: > 100 µM (inactive)
[17]
  GI50: > 100 µM (inactive)
[18]
  GI50: > 100 µM (inactive)
[19]
  GI50: > 100 µM (inactive)
[20]
  GI50: > 100 µM (inactive)
[21]
  GI50: > 100 µM (inactive)
[22]
  GI50: > 100 µM (inactive)
[23]
  GI50: > 100 µM (inactive)
[24]
  GI50: > 100 µM (inactive)
[25]
  GI50: > 100 µM (inactive)
[26]
  GI50: > 100 µM (inactive)
[27]
  GI50: > 100 µM (inactive)
[28]
  GI50: > 100 µM (inactive)
[29]
  GI50: > 100 µM (inactive)
[30]
  GI50: > 100 µM (inactive)
[31]
  GI50: > 100 µM (inactive)
[32]
  GI50: > 100 µM (inactive)
[33]
  GI50: > 100 µM (inactive)
[34]
  GI50: > 100 µM (inactive)
[35]
  GI50: > 100 µM (inactive)
[36]
  GI50: > 100 µM (inactive)
[37]
  GI50: > 100 µM (inactive)
[38]
  GI50: > 100 µM (inactive)
[39]
  GI50: > 100 µM (inactive)
[40]
  GI50: > 100 µM (inactive)
[41]
  GI50: > 100 µM (inactive)
[42]
  GI50: > 100 µM (inactive)
[43]
  GI50: > 100 µM (inactive)
[44]
  GI50: 67 µM (inactive)
[45]
  GI50: > 100 µM (inactive)
[46]
  GI50: > 100 µM (inactive)
[47]
  GI50: > 100 µM (inactive)
[48]
  GI50: > 100 µM (inactive)
[49]
  GI50: > 100 µM (inactive)
[50]
  GI50: > 100 µM (inactive)
[51]
  GI50: > 100 µM (inactive)
[52]
  GI50: > 100 µM (inactive)
[53]
  GI50: > 100 µM (inactive)
[54]
  GI50: > 100 µM (inactive)

## NC12CC3C4CC5(N)CC3C(C1)C(C5)C4C2
[1]
  GI50: > 100 µM (inactive)
[2]
  GI50: > 100 µM (inactive)
[3]
  GI50: > 100 µM (inactive)
[4]
  GI50: > 100 µM (inactive)
[5]
  GI50: > 100 µM (inactive)
[6]
  GI50: > 100 µM (inactive)
[7]
  GI50: > 100 µM (inactive)
[8]
  GI50: > 100 µM (inactive)
[9]
  GI50: > 100 µM (inactive)
[10]
  GI50: > 100 µM (inactive)
[11]
  GI50: > 100 µM (inactive)
[12]
  GI50: > 100 µM (inactive)
[13]
  GI50: > 100 µM (inactive)
[14]
  GI50: > 100 µM (inactive)
[15]
  GI50: > 100 µM (inactive)
[55]
  GI50: > 100 µM (inactive)
[17]
  GI50: > 100 µM (inactive)
[18]
  GI50: > 100 µM (inactive)
[19]
  GI50: > 100 µM (inactive)
[20]
  GI50: > 100 µM (inactive)
[21]
  GI50: > 100 µM (inactive)
[22]
  GI50: > 100 µM (inactive)
[56]
  GI50: > 100 µM
[23]
  GI50: > 100 µM (inactive)
[24]
  GI50: > 100 µM (inactive)
[25]
  GI50: > 100 µM (inactive)
[26]
  GI50: > 100 µM (inactive)
[28]
  GI50: > 100 µM (inactive)
[29]
  GI50: > 100 µM (inactive)
[30]
  GI50: > 100 µM (inactive)
[31]
  GI50: > 100 µM (inactive)
[33]
  GI50: > 100 µM (inactive)
[34]
  GI50: > 100 µM (inactive)
[35]
  GI50: > 100 µM (inactive)
[36]
  GI50: > 100 µM (inactive)
[38]
  GI50: > 100 µM (inactive)
[39]
  GI50: > 100 µM (inactive)
[40]
  GI50: > 100 µM (inactive)
[41]
  GI50: > 100 µM (inactive)
[42]
  GI50: > 100 µM (inactive)
[43]
  GI50: > 100 µM (inactive)
[44]
  GI50: > 100 µM (inactive)
[45]
  GI50: > 100 µM (inactive)
[46]
  GI50: > 100 µM (inactive)
[47]
  GI50: > 100 µM (inactive)
[49]
  GI50: > 100 µM (inactive)
[50]
  GI50: > 100 µM (inactive)
[51]
  GI50: > 100 µM (inactive)
[57]
  GI50: > 100 µM (inactive)
[52]
  GI50: > 100 µM (inactive)
[53]
  GI50: > 100 µM (inactive)
[58]
  GI50: > 100 µM (inactive)
[54]
  GI50: > 100 µM (inactive)

## Cn1c(=O)cc(NNc2ccc(Br)cc2)[nH]c1=O
[59]
  GI50: 3.31 µM (inactive)
[1]
  GI50: 44.3 µM (inactive)
[2]
  GI50: 16 µM (inactive)
[3]
  GI50: 12.8 µM (inactive)
[4]
  GI50: 16.6 µM (inactive)
[5]
  GI50: 14 µM (inactive)
[7]
  GI50: 18.2 µM (inactive)
[8]
  GI50: 14.7 µM (inactive)
[9]
  GI50: 3.53 µM (inactive)
[10]
  GI50: 2.24 µM (inactive)
[11]
  GI50: 14.6 µM (inactive)
[12]
  GI50: 16.6 µM (inactive)
[13]
  GI50: 13.4 µM (inactive)
[14]
  GI50: 10.7 µM (inactive)
[15]
  GI50: 31.1 µM (inactive)
[16]
  GI50: 4.59 µM (inactive)
[18]
  GI50: 4.5 µM (inactive)
[19]
  GI50: 0.431 µM (active)
[20]
  GI50: 2.11 µM (inactive)
[21]
  GI50: 12.4 µM (inactive)
[22]
  GI50: 9.59 µM (inactive)
[56]
  GI50: 6.71 µM
[23]
  GI50: 19.1 µM (inactive)
[24]
  GI50: 2.58 µM (inactive)
[26]
  GI50: 13.9 µM (inactive)
[27]
  GI50: 3.43 µM (inactive)
[28]
  GI50: 10 µM (inactive)
[29]
  GI50: 2.99 µM (inactive)
[30]
  GI50: 15.3 µM (inactive)
[33]
  GI50: 13.6 µM (inactive)
[34]
  GI50: 3.99 µM (inactive)
[35]
  GI50: 16.4 µM (inactive)
[36]
  GI50: 16.5 µM (inactive)
[37]
  GI50: 6.55 µM (inactive)
[38]
  GI50: 11.1 µM (inactive)
[39]
  GI50: 3.88 µM (inactive)
[40]
  GI50: 17.3 µM (inactive)
[41]
  GI50: 13.9 µM (inactive)
[42]
  GI50: 10.4 µM (inactive)
[43]
  GI50: 16.9 µM (inactive)
[45]
  GI50: 13.4 µM (inactive)
[47]
  GI50: 1.17 µM (inactive)
[48]
  GI50: 6 µM (inactive)
[49]
  GI50: 15.5 µM (inactive)
[50]
  GI50: 4.26 µM (inactive)
[51]
  GI50: 3.05 µM (inactive)
[57]
  GI50: 20.3 µM (inactive)
[52]
  GI50: 0.558 µM (active)
[54]
  GI50: 10.4 µM (inactive)
